According to patent EP1247803A2, “Indolinone compounds suitable for modulation of protein kinases” (Sugen, Inc., priority 1996, dated 1998):

How the values were obtained:
PDGF-R = PDGF-R (Homo sapiens, UniProt P09619); assay: PDGF-R ELISA; assay type: cell-based
Text: A PDGF-R ELISA is described in International Patent Publication No. WO 96/40116, published December 19, 1996 by Tang et al.

FLK-1 receptor = target: T1, FLK-1 receptor (Mus musculus, UniProt P35918); assay: FLK-1 ELISA (kinase activity of the FLK-1 receptor in FLK-1/NIH3T3 cells, VEGF stimulated); assay type: cell-based
T1 construct: expressed in transfected cells; host or cells: NIH3T3 C7#3
T1 sequence (P35918 20-1345): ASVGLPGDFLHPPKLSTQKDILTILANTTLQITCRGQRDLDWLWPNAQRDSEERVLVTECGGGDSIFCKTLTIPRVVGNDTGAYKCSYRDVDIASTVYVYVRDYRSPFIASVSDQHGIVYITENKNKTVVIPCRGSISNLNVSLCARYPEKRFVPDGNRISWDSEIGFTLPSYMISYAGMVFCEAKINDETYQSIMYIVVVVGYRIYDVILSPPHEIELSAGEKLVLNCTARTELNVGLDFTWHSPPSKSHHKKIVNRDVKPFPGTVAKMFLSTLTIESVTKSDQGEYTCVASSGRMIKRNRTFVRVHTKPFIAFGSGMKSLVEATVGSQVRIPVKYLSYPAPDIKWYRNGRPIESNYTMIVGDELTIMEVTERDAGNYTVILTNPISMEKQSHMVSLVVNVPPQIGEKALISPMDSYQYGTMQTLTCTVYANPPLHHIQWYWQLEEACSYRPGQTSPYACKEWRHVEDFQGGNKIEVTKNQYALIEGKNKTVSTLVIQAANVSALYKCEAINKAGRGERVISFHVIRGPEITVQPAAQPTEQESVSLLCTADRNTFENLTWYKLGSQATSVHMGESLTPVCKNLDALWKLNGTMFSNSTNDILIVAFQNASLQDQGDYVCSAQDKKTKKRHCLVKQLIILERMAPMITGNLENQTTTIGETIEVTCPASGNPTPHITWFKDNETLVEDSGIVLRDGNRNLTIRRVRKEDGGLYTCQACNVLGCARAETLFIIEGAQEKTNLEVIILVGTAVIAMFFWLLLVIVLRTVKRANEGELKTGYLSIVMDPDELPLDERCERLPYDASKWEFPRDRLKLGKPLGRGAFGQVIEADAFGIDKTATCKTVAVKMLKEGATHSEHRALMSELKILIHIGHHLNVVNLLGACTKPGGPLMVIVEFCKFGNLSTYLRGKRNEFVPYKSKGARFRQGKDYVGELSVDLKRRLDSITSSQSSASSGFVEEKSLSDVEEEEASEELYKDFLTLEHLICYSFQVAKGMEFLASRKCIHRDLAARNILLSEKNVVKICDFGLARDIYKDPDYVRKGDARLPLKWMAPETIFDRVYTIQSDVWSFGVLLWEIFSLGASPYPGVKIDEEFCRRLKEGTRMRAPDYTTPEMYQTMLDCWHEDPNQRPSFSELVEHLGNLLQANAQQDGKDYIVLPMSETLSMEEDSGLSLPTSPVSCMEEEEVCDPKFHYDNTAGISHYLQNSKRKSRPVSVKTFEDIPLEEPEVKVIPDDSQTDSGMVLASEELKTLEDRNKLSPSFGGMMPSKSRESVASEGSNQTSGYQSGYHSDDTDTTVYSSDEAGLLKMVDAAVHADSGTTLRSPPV
Experimental: An enzyme linked immunosorbent assay (ELISA) was conducted to measure the catalytic activity of the FLK-1 receptor and more specifically, the inhibition or activation of indolinone compounds on the catalytic activity of the FLK-1 receptor. Specifically, the following assay was conducted to measure catalytic activity of the FLK-1 receptor in FLK-1/NIH3T3 cells.
The materials and protocol for the FLK-1 ELISA assay are as described in International Patent Publication No. WO 96/40116, published December 19, 1996 by Tang et al.
Selected compounds were tested in the FLK-1 ELISA assay.
An ELISA assay was conducted to measure the kinase activity of the FLK-1 receptor and more specifically, the inhibition or activation of protein tyrosine kinase activity on the FLK-1 receptor. Specifically, the following assay was conducted to measure kinase activity of the FLK-1 receptor in FLK-1/NIH3T3 cells.
Materials. The following reagents and supplies were used: • a. […] Cappel goat anti-rabbit IgG (catalog no. 55641); • c. PBS (Gibco Catalog No. 450-1300EB); • d. TBSW Buffer (50 mM Tris (pH 7.2), 150 mM NaCl and 0.1% Tween-20); • e. Ethanolamine stock (10% ethanolamine (pH 7.0), stored at 4°C); • f. HNTG buffer (20mM HEPES buffer (pH 7.5), 150mM NaCl, 0.2% Triton X-100, and 10% glycerol); • g. EDTA (0.5 M (pH 7.0) as a 100X stock); • h. Sodium ortho vanadate (0.5 M as a 100X stock); • i. Sodium pyro phosphate (0.2M as a 100X stock); • j. NUNC 96 well V bottom polypropylene plates (Applied Scientific Catalog No. AS-72092); • k. NIH3T3 C7#3 Cells (FLK-1 expressing cells); • l. DMEM with 1X high glucose L Glutamine (catalog No. 11965-050); • m. FBS, Gibco (catalog no. 16000-028); • n. L-glutamine, Gibco (catalog no. 25030-016); • o. VEGF, PeproTech, Inc. (catalog no. 100-20)(kept as 1 µg/100 µl stock in Milli-Q dH2O and stored at -20°C; • p. Affinity purified anti-FLK-1 antiserum which can be obtained or purified as follows: • 1. Prepare a Tresyl-Activated Agarose/Flk-1-D column by incubating 10 ml of Tresyl-Activated Agarose with 20 mg of purified GST-Flk-1-D fusion protein in 100mM sodium bicarbonate (pH 9.6) buffer overnight at 4 °C. • 2. Wash the column once with PBS. • 3. Block the excess sites on the column with 2 M glycine for 2 hours at 4°C. • 4. Wash the column with PBS. • 5. Incubate the column with Rabbit anti-Flk-1D production bleed for 2 hours at 4 °C. • 6. Wash the column with PBS. • 7. Elute antiserum with 100 mM Citric Acid, pH3.0 and neutralize the eluate immediately with 2 M Tris, pH 9.0. • 8. Dialyize the eluate against PBS overnight at 4 °C with 3 changes of buffer (sample to buffer ratio is 1:100). • 9. Adjust the dialyized antiserum to 5% glycerol and store at -80 °C in small aliquotes. • q.
Protocol. The following protocol was used for conducting the assay: • 1. Coat Corning 96-well elisa plates with 1.0µg per well Cappel Anti-rabbit IgG antibody in 0.1M Na2CO3 pH 9.6. Bring final volume to 150 µl per well. Coat plates overnight at 4°C. Plates can be kept up to two weeks when stored at 4°C. • 2. Grow cells in Growth media(DMEM, supplemental with 2.0mM L-Glutamine, 10% FBS) in suitable culture dishes until confluent at 37°C, 5% CO2. • 3. Harvest cells by trypsinization and seed in Corning 25850 polystyrene 96-well roundbottom cell plates, 25.000 cells/well in 200µl of growth media. • 4. Grow cells at least one day at 37°C, 5% CO2. • 5. Wash cells with D-PBS 1X. • 6. Add 200µl/well of starvation media (DMEM, 2.0mM 1-Glutamine, 0.1% FBS). Incubate overnight at 37°C, 5% CO2. • 7. Dilute Compounds/Extracts 1:20 in polypropylene 96 well plates using starvation media. Dilute dimethylsulfoxide 1:20 for use in control wells. • 8. Remove starvation media from 96 well cell culture plates and add 162 µl of fresh starvation media to each well. • 9. Add 18µl of 1:20 diluted Compound/Extract dilution (from step 7) to each well plus the 1:20 dimethylsulfoxide dilution to the control wells (+/- VEGF), for a final dilution of 1:200 after cell stimulation. […]

Chain of PDGF-R (P09619 33-1106, species assumed): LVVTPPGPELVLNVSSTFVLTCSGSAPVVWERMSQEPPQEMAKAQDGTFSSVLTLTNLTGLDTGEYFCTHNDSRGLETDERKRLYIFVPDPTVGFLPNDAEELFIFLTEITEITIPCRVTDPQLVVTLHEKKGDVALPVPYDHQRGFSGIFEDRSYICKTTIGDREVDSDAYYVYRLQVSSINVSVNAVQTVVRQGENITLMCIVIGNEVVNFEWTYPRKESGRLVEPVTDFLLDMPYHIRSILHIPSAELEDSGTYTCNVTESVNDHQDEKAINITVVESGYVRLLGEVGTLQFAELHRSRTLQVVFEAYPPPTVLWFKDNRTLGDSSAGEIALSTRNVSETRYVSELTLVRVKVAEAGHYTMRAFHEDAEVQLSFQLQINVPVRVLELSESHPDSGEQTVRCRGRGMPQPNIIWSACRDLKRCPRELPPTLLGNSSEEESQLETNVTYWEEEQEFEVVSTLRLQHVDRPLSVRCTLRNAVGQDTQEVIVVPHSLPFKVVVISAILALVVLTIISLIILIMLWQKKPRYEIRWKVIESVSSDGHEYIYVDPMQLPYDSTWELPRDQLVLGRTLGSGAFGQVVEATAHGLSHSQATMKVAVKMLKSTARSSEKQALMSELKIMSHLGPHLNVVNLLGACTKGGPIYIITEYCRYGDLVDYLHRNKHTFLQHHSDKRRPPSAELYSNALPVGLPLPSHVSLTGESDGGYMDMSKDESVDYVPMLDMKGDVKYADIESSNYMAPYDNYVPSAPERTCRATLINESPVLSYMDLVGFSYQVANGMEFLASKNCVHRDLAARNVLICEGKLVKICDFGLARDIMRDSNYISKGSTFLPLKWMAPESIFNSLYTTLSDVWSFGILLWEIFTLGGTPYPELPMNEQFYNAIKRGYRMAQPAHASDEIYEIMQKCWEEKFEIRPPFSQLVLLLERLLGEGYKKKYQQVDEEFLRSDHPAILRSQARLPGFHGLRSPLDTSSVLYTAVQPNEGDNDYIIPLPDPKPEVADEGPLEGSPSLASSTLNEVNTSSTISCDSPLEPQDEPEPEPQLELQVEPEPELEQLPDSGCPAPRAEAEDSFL

| Compound | PDGF Kinase %Inhibition (PDGF-R) [%] | Fik Kinase %Inhibition (FLK-1 receptor) [%] |
| --- | --- | --- |
| CNS(=O)(=O)c1ccc2c(c1)C(=Cc1ccc(OC)c(C(C)(C)C)c1)C(=O)N2 [10732/D05] | 4.3 | 15.7 |
| Cc1c(Br)ccc2c1C(=Cc1cc(Cl)c(OCc3ccccc3)c(C(C)(C)C)c1)C(=O)N2 [10732/C10] | 5.8 | 15.1 |
| C=C(C)C1CC=C(C=C2C(=O)Nc3ccc(CCCl)cc32)CC1 (centres unmarked) [10731/G04] | 0.3 | 14.5 |
| Cc1c(Br)ccc2c1C(=Cc1ccc(OCc3ccccc3)c(C(C)(C)C)c1)C(=O)N2 [10732/C06] | 5.3 | 11.8 |
| C=C(C)C1CC=C(C=C2C(=O)Nc3ccc(S(=O)(=O)NC)cc32)CC1 (centres unmarked) [10731/D04] | 6.5 | 9.3 |
| CC(C)(C)c1cc(C=C2C(=O)Nc3c(Br)cc(Br)cc32)cc(Cl)c1OCc1ccccc1 [10732/A10] | 7.3 | 10.2 |
| COc1c(Br)cc(C=C2C(=O)Nc3c(Br)cc(Br)cc32)cc1C(C)(C)C [10732/A07] | 0.7 | -19.8 |
| COc1ccc(C=C2C(=O)Nc3ccc(Br)c(C)c32)cc1C(C)(C)C [10732/C05] | -17.0 | 11.2 |
| CNS(=O)(=O)c1ccc2c(c1)C(=Cc1cc(Br)c(OC)c(C(C)(C)C)c1)C(=O)N2 [10732/D07] | -3.8 | 14.7 |
| COc1c(Cl)cc(C=C2C(=O)Nc3ccc(I)cc32)cc1C(C)(C)C [10732/B09] | 18.4 | 14.0 |
